Test results taken from patent publication US7615534B2, “Antimicrobial peptides and use thereof” (Toagosei Co., Ltd, priority 2005, dated 2009).
Where no end group is shown, it is not given here.

tested on: Staphylococcus aureus IFO 12732; format: cell-based; settings: 37° C., turbidity 24 hours later, diluents approximately 50 μM to approximately 0.39 μM, approximately 1×10^6 cells/mL
Procedure: Regarding the antimicrobial peptide in each of samples 1 to 14, the antimicrobial activities (minimum inhibitory concentration: MIC) with respect to gram-positive bacteria (Staphylococcus aureus IFO 12732) were determined, as described below, by a liquid medium dilution technique using a 96-well microplate. Staphylococcus aureus bacteria are inoculated from a preservation medium to an agar plate medium (“Muller Hinton Agar” manufactured by DIFCO), and thereafter stationary cultured for 18 hours at 37° C. Cultured bacteria were scratched twice using a disposable loop, and gathered bacteria were suspended in 5 mL of physiological saline. The OD660 value of the bacterial suspension derived from diluting the suspension 10 times with physiological saline was determined. The bacterial suspension used in the following tests was prepared by utilizing physiological saline, such that its OD660 value was 0.1 (therefore, bacteria concentration: approximately 2×10^7 cells/mL).
Each peptide sample derived by the above-described method was dissolved with sterile distilled water, which served as a carrier in the present example, to prepare a drug of predetermined concentration. More specifically, an appropriate amount of peptide sample were added into an Eppendorf (registered trademark) tube with an appropriate capacity, and such peptide sample were dissolved with sterile distilled water to prepare 2 mM of drug (peptide solution). The derived drug was appropriately diluted, and each diluent of approximately 50 μM to approximately 0.39 μM was prepared. Thereafter, each diluent was respectively introduced into the well of a polystyrene 96-round-bottom-well microplate prepared in advance. Next, 5 μL of the bacterial suspension having 0.1 OD660 was added (test bacteria quantity: approximately 1×10^6 cells/mL) respectively to each well containing the diluent of each concentration. The microplate was then incubated in an incubator at 37° C., and the presence of bacteria was evaluated based on the turbidity 24 hours later. The minimum drug concentration (peptide concentration), in which an increased in turbidity caused by bacteria was not detected at the time of measurement, was defined as MIC (unit: μM) in the present example.

Row | Compound | Antimicrobial Activities (MIC) S. aureus (24 hours later)
1 | CC[C@H](C)[C@H](NC(=O)[C@H](CC(C)C)NC(=O)[C@H](CCCNC(=N)N)NC(=O)[C@@H](N)C(C)C)C(=O)N[C@@H](CCCCN)C(=O)N[C@@H](CC(C)C)C(=O)N[C@@H](CC(C)C)C(=O)N[C@@H](Cc1ccc(O)cc1)C(=O)N[C@@H](CCC(N)=O)C(N)=O [Sample 1, VRLLKLLYQ] | 50 µM
2 | CC[C@H](C)[C@H](NC(=O)[C@H](CC(C)C)NC(=O)[C@H](CCCNC(=N)N)NC(=O)[C@@H](NC(=O)[C@@H](NC(=O)[C@H](CCCNC(=N)N)NC(=O)[C@@H](NC(=O)[C@H](CC(C)C)NC(=O)[C@H](CCC(=O)O)NC(=O)[C@@H](N)CCC(=O)O)[C@@H](C)CC)[C@@H](C)O)C(C)C)C(=O)N[C@@H](CCCCN)C(=O)N[C@@H](CC(C)C)C(=O)N[C@@H](CC(C)C)C(=O)N[C@@H](Cc1ccc(O)cc1)C(=O)N[C@@H](CCC(N)=O)C(N)=O [Sample 10, EELIRTVRLIKLLYQ] | 25 µM
3 | EDLLKAVRLIKFLYQ-NH2 [Sample 9, EDLLKAVRLIKFLYQ] | 25 µM
4 | EDLLRTVRLIKVLYQ-NH2 [Sample 13, EDLLRTVRLIKVLYQ] | 50 µM
5 | EELLKAVRLIKLLYQ-NH2 [Sample 8, EELLKAVRLIKLLYQ] | 25 µM
6 | ENLLKAIRLIKFLYQ-NH2 [Sample 14, ENLLKAIRLIKFLYQ] | 6.25 µM
7 | IRLIKFLYQ-NH2 [Sample 5, IRLIKFLYQ] | 25 µM
8 | KTKEGVKT (KTKEGVKT-NH2) [Comparative Sample 1, reference compound] | No Activity
9 | RELLTAVRIIKILYQ-NH2 [Sample 12, RELLTAVRIIKILYQ] | 25 µM
10 | RLIKLLYQ-NH2 [Sample 6, RLIKLLYQ] | 25 µM
11 | RLIKLLYQRLIKLLYQ-NH2 [Sample 7, RLIKLLYQ RLIKLLYQ] | 6.25 µM
12 | RRAAQAVRLIKLLYQ-NH2 [Sample 11, RRAAQAVRLIKLLYQ] | 6.25 µM
13 | VRFIKFLYQ-NH2 [Sample 3, VRFIKFLYQ] | 25 µM
14 | VRLIKFLYQ-NH2 [Sample 2, VRLIKFLYQ] | 12.5 µM

same assay, conditions: summary of Table 2

Row | Compound | antimicrobial activity (in words)
15 | KTKEGVKT (KTKEGVKT-NH2) [Comparative Sample 1, reference compound] | no antimicrobial activity was detected
